Paper PMC11170107, “Development of a new hazard scoring system in primary neuronal cell cultures for drug-induced acute neuronal toxicity identification in early drug discovery” (Frontiers in Pharmacology, 2024)
“Also recorded” adds a separate entry of the source.

Experiments:
[1] = Supplementary Table S1; cited from earlier work
[2] = seizure ADR frequency in SIDER; ref Campillos et al., 2008; Kuhn et al., 2010; cited from earlier work
[3] = tested on: rat primary cortical neurons; assay: MEA hazard scoring in rat primary cortical neuronal cultures; details: for hazard classification in the hazard scoring system: rat primary neurons on MEA
[4] = WHO adverse drug reactions VigiBase; ref Kumlien and Lundberg, 2010; cited from earlier work
[5] = ref National library of medicine, Daylimed; cited from earlier work
[6] = established from VigiBase, SIDER, Elsevier drug information and FDA prescribing information
[7] = statistical tolerance interval of the ΔΔ% effect, One-sided interval

Molecule	Free Cmax highest [1] [nM]	Percentage seizures of total number of ADRs [4] [%]	Classification* (degree of seizure risk) [6]	further results
CN(C)CCC=C1c2ccccc2CCc2ccccc21 [Amitriptyline]	173	1.447		SIDER ADR on-/off-label [2]: no frequency information; Area.Under.Cross.Correlation Lower.TI [3, 7]: -100; Area.Under.Cross.Correlation Upper.TI [3, 7]: -28.75; Burst.Duration...Avg.(s. Lower.TI) [3, 7]: -100; Burst.Duration...Avg.(s. Upper.TI) [3, 7]: 2740; Mean.Firing.Rate..Hz. Lower.TI [3, 7]: -100; Mean.Firing.Rate..Hz. Upper.TI [3, 7]: -25.19; Median.Mean.ISI Lower.TI [3, 7]: -60.49; Median.Mean.ISI Upper.TI [3, 7]: 9.96; FDA prescription information at therapeutic dose (Convulsion/ Seizure/Lower the seizure threshold/withdrawal) [5]: not found on label
COC(=O)C1=C(C)NC(C)=C([N+](=O)[O-])C1c1ccccc1C(F)(F)F (centres unmarked) [BayK 8644]			No risk	
Cc1ccc(-c2cc(C(F)(F)F)nn2-c2ccc(S(N)(=O)=O)cc2)cc1 [Celecoxib]	410	0.3553		SIDER ADR on-/off-label [2]: not found on label; hazard classification in the hazard scoring system [3]: high hazard; FDA prescription information at therapeutic dose (Convulsion/ Seizure/Lower the seizure threshold/withdrawal) [5]: not found on label
NS(=O)(=O)c1cc2c(cc1Cl)NC(C1CC3C=CC1C3)NS2(=O)=O (centres unmarked) [Cyclothiazide]	3000	0	Risk	
N[C@@]1(C(=O)O)CC[C@H]2[C@H](C(=O)O)[C@H]21 [Eglumetad (LY354740), Eglumetad]			Risk	
CCN1C(=O)OC(C)(C)C1=O [Ethadione]			Risk	
COc1ccc(COc2ccc(Cc3cnc(N)nc3N)cc2OC)cc1 [GW-2580]			Risk	
NN [Hydrazine]			Risk	
NC(CCP(=O)(O)O)C(=O)O [L-AP 4]			Risk	
C[C@](N)(Cc1ccc(O)c(O)c1)C(=O)O [Methyldopa]	3300	0.1002		SIDER ADR on-/off-label [2]: not found on label; hazard classification in the hazard scoring system [3]: high hazard; FDA prescription information at therapeutic dose (Convulsion/ Seizure/Lower the seizure threshold/withdrawal) [5]: not found on label
Cc1cc2c(s1)Nc1ccccc1N=C2N1CCN(C)CC1 [Olanzapine]			No risk	
C1CCc2nnnn2CC1 [Pentylenetetrazole]			Risk	
FC(F)(F)c1ccc(CNc2ccc(Cc3c[nH]c4ncc(Cl)cc34)cn2)cn1 [Pexidartinib]	100	0.5386	Risk	FDA prescription information at therapeutic dose (Convulsion/ Seizure/Lower the seizure threshold/withdrawal) [5]: not found on label
O=C1NC(=O)C(c2ccccc2)(c2ccccc2)N1 [Phenytoin]	8127	8.075		SIDER ADR on-/off-label [2]: infrequent (0.1-1%); hazard classification in the hazard scoring system [3]: hazards; also recorded: high hazard; FDA prescription information at therapeutic dose (Convulsion/ Seizure/Lower the seizure threshold/withdrawal) [5]: On label
[Br-].[K+] [Potassium bromide]		4.831	No risk	FDA prescription information at therapeutic dose (Convulsion/ Seizure/Lower the seizure threshold/withdrawal) [5]: not found on label
Cc1ccc(COC(=O)N2CC[C@H](CNc3ncccn3)[C@H](F)C2)cc1 [Rislenemdaz (CERC-301), Rislenemdaz]	4		Risk	
CNC(=O)c1cc(Oc2ccc3nc(N[C@@H]4CCCC[C@H]4O)sc3c2)ccn1 [Sotuletinib]			Risk	
O=C1C[C@@H]2OCC=C3CN4CC[C@]56c7ccccc7N1[C@H]5[C@H]2[C@H]3C[C@H]46 [Strychnine]		0	Risk	
O=C1c2ccccc2C(Cc2ccncc2)(Cc2ccncc2)c2ccccc21 [XE-991]			Risk	
CCCCCCOc1nsnc1C1=CCCN(C)C1 [Xanomeline]			Risk	
Tertiapin			Low risk	
